{
  "source": "paper PMC11940343",
  "about": "“In Vitro and In Vivo Evaluation of the De Novo Designed Antimicrobial Peptide P6.2 Against a KPC-Producing P. aeruginosa Clinical Isolate” (Biomolecules, 2025)",
  "key": {"P. aeruginosa M13513 [1]": {"system": "P. aeruginosa M13513", "experiment": "Bactericidal effect by killing kinetics (time-kill curve)", "format": "cell-based, Pseudomonas aeruginosa", "conditions": "killing kinetics at 64 µg/mL of P6.2", "method": "The bactericidal activity was determined according to the CLSI recommendations. In short, the bactericidal activity of the antimicrobial agents on the microorganisms was evaluated using a time–kill curve. The Minimal Bactericidal Concentration (MBC) is the lowest drug concentration required to eliminate 99.9% of viable organisms (a 3-log reduction in CFU/mL compared to the control) after a set incubation period under defined conditions. This is the most common method for estimating bactericidal activity.\nThe killing kinetics of an antimicrobial agent allow us to observe how the agent exerts its activity as a function of time, determining viable cells by counting colony-forming units at different time points. Normally, for commonly used antibiotics, this measurement is carried out over a 24-h period, since they reach their maximum activity during this period. However, for AMPs, these times are much shorter; in fact, these antimicrobials exert their maximum activity in just hours or minutes. For this reason, killing kinetics at MIC was carried out by measuring viable bacteria at short intervals over a period of three hours."}, "P. aeruginosa M13513 [2]": {"system": "P. aeruginosa M13513", "method": "To analyze the stability of the molecule, the peptide was exposed to different temperatures for varying durations. The conditions tested involved incubation at 37 °C for 24 h, at 60 °C for 2 h, and at 100 °C for 15 min. Each condition was set up in a microtube with the peptide dissolved in sterile deionized water. As a control, the peptide was dissolved immediately before testing without temperature incubation. Afterward, the broth microdilution assay was conducted to assess its antimicrobial effectiveness. Additionally, the stability of the peptide in serum was examined. Three microtubes were prepared, each containing sterile deionized water with FCBS (fetal calf bovine serum) 25% (v/v) and the antimicrobial peptide. Two of these samples were incubated at 37 °C for 24 h or 2 h, while the third sample was prepared just before testing without any temperature incubation. As controls, serum alone and peptide without serum were used. The antimicrobial activity was subsequently evaluated through the broth microdilution assay. In order to assess the stability of the AMP, P6.2 was incubated at different temperature conditions or with FBS (fetal bovine serum) for different time periods. The temperature exposures were overnight (ON) at 37 °C, 120 min at 60 °C, and 15 min at 100 °C. […]"}, "P. aeruginosa M13513 [3]": {"system": "P. aeruginosa M13513", "experiment": "Synergy by time-kill kinetic assay", "format": "cell-based, Pseudomonas aeruginosa", "conditions": "P6.2 and meropenem both at 0.5× MIC, synergy = ≥2-log10 decrease in CFU/mL vs most active constituent after 24 h", "method": "The possible synergistic interaction between P6.2 and meropenem was assessed through time–kill kinetic assays. These experiments were conducted in 50 mL tubes with a final volume of 10 mL. A log-phase culture of P. aeruginosa M13513 was obtained and subsequently diluted in CAMHB to achieve a final bacterial concentration of 5 × 10^6 CFU/mL. Both P6.2 and meropenem were tested individually and in combination at 0.5× MIC (minimum inhibitory concentration). Untreated bacterial cultures served as controls.\nThe samples were incubated at 37 °C with constant shaking for 24 h. Aliquots were collected at 0, 1, 2, 3, 4, 8, and 20 h, serially diluted in saline, and plated in triplicate on LB agar using three drops of 50 µL per dilution. The plates were incubated at 37 °C for 24 h to determine colony-forming unit (CFU) counts.\nThe results were plotted as Log CFU/mL versus time (h). […] A bactericidal effect was determined when the initial inoculum was reduced by three or more logarithmic units."}, "P. aeruginosa M13513 [4]": {"system": "P. aeruginosa M13513", "experiment": "Galleria mellonella larval infection model", "format": "in vivo", "text": "Lepidoptera were reared in the laboratory in a standardized manner. A breeding colony was established, and the different stages of the insect’s life cycle were documented. Adult insects were housed in a plastic container without access to food, allowing for the collection of eggs. Then, eggs and larvae were placed in containers with fresh food, prepared from autoclaved wheat bran (50%), dry yeast (5%), beeswax (6%), honey (26%), and glycerin (13%). In each growth cycle, a pool of larvae was reserved to progress to pupa and adult generation. The larvae and eggs were kept at room temperature during the warm seasons and in an oven with humidity control at 30 °C during the cold seasons. For each experiment, a group of late-stage caterpillars was set aside and kept in the dark at a temperature of 10–12 °C, ensuring their use within one week of collection. For the in vivo tests, larvae of approximately 2 cm in length and an average weight of 250 mg were used. This average weight was used to calculate the antimicrobial doses. The bacterial inoculum used in the larval infection models was prepared from an ON culture, which was washed twice with physiological saline solution and adjusted by measuring OD600nm. […] The larvae were incubated at 37 °C, and their survival was monitored for five days."}, "[5]": {"conditions": "affinity towards eukaryotic and prokaryotic membranes; cited from earlier work", "text": "(§1) Peptide 6.2 (P6.2) is a de novo designed antimicrobial peptide, with an amphipathic alfa helical structure."}, "mice erythrocytes": {"system": "mice erythrocytes", "conditions": "cited from earlier work", "text": "as §1"}, "[6]": {"system": "P. aeruginosa strain PA01", "conditions": "mice challenged with P. aeruginosa PA01; ref previous work; cited from earlier work", "text": "The antimicrobial peptide P6.2 was previously de novo designed as an alpha helix cationic amphipathic molecule. […] In this work, the peptide P6.2 antimicrobial activity and its possible synergy with ..."}},
  "note": "No end group written: not given here.",
  "data": [
    {"substance": "GLLRKWGKKWKEFLRRVWK-NH2 [Peptide P6.2]", "values": [
      {"measurement": "time to 99.9% reduction in viable bacteria (bactericidal effect)", "setting": "P. aeruginosa M13513 [1]", "result": "less than 45 min"},
      {"measurement": "reduction of antimicrobial activity after serum incubation", "setting": "P. aeruginosa M13513 [2]", "result": "two-fold dilution"},
      {"measurement": "interaction with meropenem", "setting": "P. aeruginosa M13513 [3]", "result": "synergism"},
      {"measurement": "survival compared with meropenem 2.5 alone (log-rank test)", "setting": "P. aeruginosa M13513 [4]; P6.2 5 + Mer 2.5 vs Mer 2.5", "result": "not significative differences"},
      {"measurement": "prevention of larvae death", "setting": "P. aeruginosa M13513 [4]; peptide alone, 2.5-80 mg/kg single injection 1 h post infection, 10^3 CFU/larva, n = 10, 5 days", "result": "not effective"},
      {"measurement": "membrane selectivity", "setting": "[5]", "result": "selectivity for bacterial membranes"},
      {"measurement": "erythrocytes lysis", "setting": "mice erythrocytes", "result": "less than 10%"},
      {"measurement": "effect in murine acute lung infection model", "setting": "[6]", "result": "anti-inflammatory effects"}
    ]}
  ]
}
